Measurements taken from ChEMBL document CHEMBL4145625 (J Med Chem, 2018).
In brackets after ≈: the same amount, converted by molar mass.

Columns and labels:
[1] = system: NCI-H460; experiment: cells; type: functional, cell-based; details: Homo sapiens, NCI-H460, 96 h
Description: Cytotoxicity against human NCI-H460 cells after 96 hrs by MTT assay

[2] = system: Mus musculus; experiment: Toxicity in human NCI-H460 cells xenografted BALB/c nude mouse assessed as reduction in body weight at 10 mg/kg, po administered once daily after 20 days; type: organism-based; details: in vivo, 480 h
[3] = system: NCI-H460; experiment: Antitumor activity against human NCI-H460 cells xenografted in BALB/c nude mouse assessed as tumor growth inhibition at 10 mg/kg, po administered once daily after 20 days relative to control; type: functional; details: 480 h, read-out: TGI
[4] = system: Mus musculus; experiment: Toxicity in human NCI-H460 cells xenografted BALB/c nude mouse assessed as reduction in body weight at 24 mg/kg, ip administered once daily after 20 days; type: organism-based; details: in vivo, 480 h
[5] = system: NCI-H460; experiment: Antitumor activity against human NCI-H460 cells xenografted in BALB/c nude mouse assessed as tumor growth inhibition at 24 mg/kg, ip administered once daily after 16 days relative to control; type: functional; details: 384 h, read-out: TGI
[6] = system: Mus musculus; experiment: Toxicity in human NCI-H460 cells xenografted BALB/c nude mouse assessed as reduction in body weight at 24 mg/kg, ip administered once daily after 16 days; type: organism-based; details: in vivo, 384 h
[7] = system: NCI-H460; experiment: Antitumor activity against human NCI-H460 cells xenografted in BALB/c nude mouse assessed as tumor growth inhibition at 24 mg/kg, ip administered once daily after 20 days relative to control; type: functional; details: 480 h, read-out: TGI
[8] = biological target: Phosphatidylinositol 4,5-bisphosphate 3-kinase catalytic subunit beta isoform (Homo sapiens, UniProt P42338); experiment: Inhibition of PI3Kbeta (unknown origin) using PIP2 as substrate by ADP-Glo assay
Phosphatidylinositol 4,5-bisphosphate 3-kinase catalytic subunit beta isoform, sequence (P42338 whole entry, canonical isoform): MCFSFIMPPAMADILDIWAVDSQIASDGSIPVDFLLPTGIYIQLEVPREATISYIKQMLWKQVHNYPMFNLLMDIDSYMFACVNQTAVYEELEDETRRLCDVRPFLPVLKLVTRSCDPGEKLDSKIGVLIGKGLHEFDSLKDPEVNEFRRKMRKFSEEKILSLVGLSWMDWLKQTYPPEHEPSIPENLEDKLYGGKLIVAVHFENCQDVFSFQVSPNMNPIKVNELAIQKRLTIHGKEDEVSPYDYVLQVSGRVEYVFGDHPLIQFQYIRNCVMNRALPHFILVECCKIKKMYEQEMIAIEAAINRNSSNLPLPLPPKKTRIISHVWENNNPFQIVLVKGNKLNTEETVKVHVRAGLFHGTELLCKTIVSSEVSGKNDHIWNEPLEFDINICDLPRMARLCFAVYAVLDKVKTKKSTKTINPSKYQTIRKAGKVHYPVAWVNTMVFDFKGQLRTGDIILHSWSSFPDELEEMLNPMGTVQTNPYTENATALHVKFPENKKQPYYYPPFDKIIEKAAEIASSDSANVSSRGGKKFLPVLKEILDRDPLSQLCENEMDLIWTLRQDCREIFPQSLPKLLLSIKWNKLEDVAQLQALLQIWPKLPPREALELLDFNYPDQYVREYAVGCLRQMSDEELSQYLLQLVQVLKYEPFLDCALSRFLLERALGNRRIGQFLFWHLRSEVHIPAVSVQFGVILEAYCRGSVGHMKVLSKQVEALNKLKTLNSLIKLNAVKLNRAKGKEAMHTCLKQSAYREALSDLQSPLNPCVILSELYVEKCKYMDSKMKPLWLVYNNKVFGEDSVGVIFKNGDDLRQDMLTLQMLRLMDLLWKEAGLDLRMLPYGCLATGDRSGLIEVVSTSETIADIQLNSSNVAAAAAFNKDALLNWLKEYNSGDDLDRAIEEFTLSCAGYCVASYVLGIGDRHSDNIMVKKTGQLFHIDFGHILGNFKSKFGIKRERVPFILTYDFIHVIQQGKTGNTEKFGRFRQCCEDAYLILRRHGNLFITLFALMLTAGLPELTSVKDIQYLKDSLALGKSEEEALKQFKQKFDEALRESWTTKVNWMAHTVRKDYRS

[9] = in vivo; details: ICR, mouse, in vivo, po, 30 mg/kg
[10] = system: NCI-H209; experiment: animal or person; details: Mus musculus, NCI-H209, po, read-out: TGI
[11] = in vivo; details: ICR, mouse, in vivo, iv, 3 mg/kg
[12] = system: U-251; experiment: cells; type: functional, cell-based; details: Homo sapiens, U-251, 96 h
Description: Cytotoxicity against human U251 cells after 96 hrs by MTT assay

[13] = system: NCI-H209; details: Homo sapiens
Description: Antitumor activity against human NCI-H209 cells xenografted in po dosed BALB/c nude mouse assessed as tumor growth inhibition administered once daily after 19 consecutive days

[14] = mouse, in vivo, po, 30 mg/kg
[15] = system: T98G; experiment: cells; type: functional, cell-based; details: Homo sapiens, 96 h
Description: Cytotoxicity against human T98G cells after 96 hrs by MTT assay

[16] = system: NCI-H460; experiment: Antitumor activity against human NCI-H460 cells xenografted in po dosed athymic BALB/c nude mouse administered as single dose via gavage after 2 to 24 hrs; type: functional, organism-based
[17] = in vitro; details: ICR, mouse, plasma
Description: Protein binding in ICR mouse plasma at 2 uM after 6 hrs by LC-MS/MS analysis

[18] = system: DU-145; experiment: cells; type: functional, cell-based; details: Homo sapiens, DU-145, 96 h
Description: Cytotoxicity against human DU145 cells after 96 hrs by MTT assay

[19] = in vivo; details: ICR, mouse, in vivo, po, 30 mg/kg; remark: listed apart in the source
Description: Half life in ICR mouse plasma at 30 mg/kg, po by LC/MS/MS analysis

[20] = in vivo; details: ICR, mouse, in vivo, po, 30 mg/kg; remark: listed apart in the source
[21] = system: MGC-803; experiment: Antitumor activity against human MGC803 cells xenografted in BALB/c nude mouse assessed as tumor growth inhibition at 5 mg/kg, po administered once daily for 18 days measured at post last dose relative to control; type: functional; details: MGC-803, po, 432 h, read-out: TGI
[22] = system: HGC-27; experiment: cells; type: functional, cell-based; details: Homo sapiens, HGC-27, 96 h
Description: Cytotoxicity against human HGC27 cells after 96 hrs by MTT assay

[23] = in vivo; details: ICR, mouse, in vivo, iv, 3 mg/kg; remark: listed apart in the source
[24] = in vivo; details: ICR, mouse, in vivo, iv, 3 mg/kg; remark: listed apart in the source
Description: Half life in ICR mouse plasma at 3 mg/kg, iv by LC/MS/MS analysis

[25] = system: U-87 MG; experiment: cells; type: functional, cell-based, U-87MG ATCC; details: Homo sapiens, 96 h
Description: Cytotoxicity against human U87MG cells after 96 hrs by MTT assay

[26] = biological target: Serine/threonine-protein kinase mTOR (Homo sapiens, UniProt P42345); experiment: Inhibition of mTOR (unknown origin) using ULight-4E-BP1 peptide as substrate after 30 mins by Lance Ultra assay
[27] = system: MGC-803; experiment: animal or person; details: Mus musculus, MGC-803, po, 432 h, read-out: TGI
[28] = in vivo; details: ICR, mouse, in vivo, po, 30 mg/kg; remark: listed apart in the source
[29] = in vitro; details: human, plasma
Description: Protein binding in human plasma at 2 uM after 6 hrs by LC-MS/MS analysis

[30] = in vivo; details: ICR, mouse, in vivo, iv, 3 mg/kg; remark: listed apart in the source
[31] = system: MGC-803; details: Homo sapiens
Description: Antitumor activity against human MGC803 cells xenografted in po dosed BALB/c nude mouse assessed as tumor growth inhibition administered once daily measured at post last dose

[32] = in vivo; details: athymic BALB/c nude, mouse, in vivo, po, 10 mg/kg
[33] = in vivo; details: ICR, mouse, in vivo, iv, 3 mg/kg; remark: listed apart in the source
Description: Clearance in ICR mouse plasma at 3 mg/kg, iv by LC/MS/MS analysis

[34] = system: NCI-H209; experiment: animal or person; details: Mus musculus, NCI-H209, po, read-out: TGI; remark: listed apart in the source
Description: Antitumor activity against human NCI-H209 cells xenografted in BALB/c nude mouse assessed as tumor growth inhibition at 5 mg/kg, po administered once daily after 19 consecutive days relative to control

[35] = system: PC-3; experiment: cells; type: functional, cell-based; details: Homo sapiens, PC-3, 96 h
Description: Cytotoxicity against human PC3 cells after 96 hrs by MTT assay

[36] = system: NCI-H460; experiment: animal or person; details: Mus musculus, NCI-H460, po, 480 h, read-out: TGI
Description: Antitumor activity against human NCI-H460 cells xenografted in BALB/c nude mouse assessed as tumor growth inhibition at 5 mg/kg, po administered once daily after 20 days relative to control

[37] = system: A549; experiment: cells; type: functional, cell-based; details: Homo sapiens, A549, 96 h
Description: Cytotoxicity against human A549 cells after 96 hrs by MTT assay

[38] = in vivo; details: ICR, mouse, po
Description: Toxicity in po dosed ICR mouse administered as single dose via oral gavage measured after 14 days

[39] = biological target: Phosphatidylinositol 4,5-bisphosphate 3-kinase catalytic subunit gamma isoform (Homo sapiens, UniProt P48736); experiment: Inhibition of PI3Kgamma (unknown origin) using PIP2 as substrate by ADP-Glo assay
Phosphatidylinositol 4,5-bisphosphate 3-kinase catalytic subunit gamma isoform, sequence (P48736 whole entry, canonical isoform): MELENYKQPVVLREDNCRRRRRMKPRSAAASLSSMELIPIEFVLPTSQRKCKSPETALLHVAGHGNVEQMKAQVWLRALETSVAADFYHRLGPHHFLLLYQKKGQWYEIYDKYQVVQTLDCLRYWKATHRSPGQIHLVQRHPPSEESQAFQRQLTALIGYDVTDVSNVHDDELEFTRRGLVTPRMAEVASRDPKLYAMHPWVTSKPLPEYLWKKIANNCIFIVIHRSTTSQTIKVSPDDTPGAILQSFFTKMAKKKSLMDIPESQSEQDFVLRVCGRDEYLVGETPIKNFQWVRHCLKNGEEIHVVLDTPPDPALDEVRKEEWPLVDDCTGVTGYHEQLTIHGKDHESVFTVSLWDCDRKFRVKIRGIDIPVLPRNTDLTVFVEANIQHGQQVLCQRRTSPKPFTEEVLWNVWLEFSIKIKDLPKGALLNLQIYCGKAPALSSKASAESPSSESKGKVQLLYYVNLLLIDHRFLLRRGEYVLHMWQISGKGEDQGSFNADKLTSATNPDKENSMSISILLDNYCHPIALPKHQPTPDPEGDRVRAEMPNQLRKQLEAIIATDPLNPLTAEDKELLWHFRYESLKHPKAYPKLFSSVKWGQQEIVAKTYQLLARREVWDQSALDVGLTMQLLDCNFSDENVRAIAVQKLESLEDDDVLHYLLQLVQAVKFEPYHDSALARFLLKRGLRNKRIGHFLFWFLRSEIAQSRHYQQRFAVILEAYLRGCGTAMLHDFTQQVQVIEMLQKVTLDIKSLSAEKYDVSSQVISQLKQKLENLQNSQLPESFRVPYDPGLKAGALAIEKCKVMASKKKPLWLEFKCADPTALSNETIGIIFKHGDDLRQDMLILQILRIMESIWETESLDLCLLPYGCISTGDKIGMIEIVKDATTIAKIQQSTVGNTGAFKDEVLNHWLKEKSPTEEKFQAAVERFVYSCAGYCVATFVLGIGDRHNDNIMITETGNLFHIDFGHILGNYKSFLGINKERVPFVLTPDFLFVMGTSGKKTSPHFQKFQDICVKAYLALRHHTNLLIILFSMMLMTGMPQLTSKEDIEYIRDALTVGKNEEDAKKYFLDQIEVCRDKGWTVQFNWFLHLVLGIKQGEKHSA

[40] = system: SH-SY5Y; experiment: cells; type: functional, cell-based; details: Homo sapiens, 96 h
Description: Cytotoxicity against human SH-SY5Y cells after 96 hrs by MTT assay

[41] = system: Mus musculus; experiment: In vivo inhibition of PI3Kalpha in po dosed athymic BALB/c nude mouse xenografted with human NCI-H460 cells administered as single dose via gavage after 2 to 24 hrs; type: functional, organism-based
[42] = system: HGC-27; experiment: Antitumor activity against human HGC27 cells xenografted in BALB/c nude mouse assessed as tumor growth inhibition at […], po administered once daily for 15 days measured at post last dose relative to control; type: functional; details: HGC-27, po, 360 h, read-out: TGI
[43] = biological target: RAC-alpha serine/threonine-protein kinase (Homo sapiens, UniProt P31749); experiment: Inhibition of AKT1 (unknown origin) using FAM-labeled peptide as substrate by mobility shift assay
RAC-alpha serine/threonine-protein kinase, sequence (P31749 whole entry): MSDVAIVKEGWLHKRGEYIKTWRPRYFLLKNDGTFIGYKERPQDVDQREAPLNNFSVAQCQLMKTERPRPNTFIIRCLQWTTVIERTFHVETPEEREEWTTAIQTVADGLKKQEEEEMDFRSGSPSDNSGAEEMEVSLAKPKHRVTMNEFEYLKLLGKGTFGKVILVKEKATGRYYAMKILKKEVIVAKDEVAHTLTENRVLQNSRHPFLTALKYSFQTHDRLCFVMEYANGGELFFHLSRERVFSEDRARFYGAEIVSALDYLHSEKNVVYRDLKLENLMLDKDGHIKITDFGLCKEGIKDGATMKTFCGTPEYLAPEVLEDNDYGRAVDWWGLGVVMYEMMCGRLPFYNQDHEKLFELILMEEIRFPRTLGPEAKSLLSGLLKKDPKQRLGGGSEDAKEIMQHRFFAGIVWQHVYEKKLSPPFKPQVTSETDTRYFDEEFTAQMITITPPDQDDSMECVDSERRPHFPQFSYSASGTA

[44] = in vivo; details: ICR, mouse, in vivo, iv, 3 mg/kg; remark: listed apart in the source
[45] = in vivo; details: ICR, mouse, in vivo, po, 30 mg/kg; remark: listed apart in the source
[46] = in vivo; details: ICR, mouse, in vivo, po, 30 mg/kg; remark: listed apart in the source
[47] = system: MDA-MB-231; experiment: cells; type: functional, cell-based; details: Homo sapiens, MDA-MB-231, 96 h
Description: Cytotoxicity against human MDA-MB-231 cells after 96 hrs by MTT assay

[48] = biological target: T1, Phosphatidylinositol 4,5-bisphosphate 3-kinase catalytic subunit delta isoform (Homo sapiens, UniProt O00329); experiment: Inhibition of PI3Kdelta (unknown origin) using PIP2 as substrate by ADP-Glo assay
T1 sequence (O00329 whole entry): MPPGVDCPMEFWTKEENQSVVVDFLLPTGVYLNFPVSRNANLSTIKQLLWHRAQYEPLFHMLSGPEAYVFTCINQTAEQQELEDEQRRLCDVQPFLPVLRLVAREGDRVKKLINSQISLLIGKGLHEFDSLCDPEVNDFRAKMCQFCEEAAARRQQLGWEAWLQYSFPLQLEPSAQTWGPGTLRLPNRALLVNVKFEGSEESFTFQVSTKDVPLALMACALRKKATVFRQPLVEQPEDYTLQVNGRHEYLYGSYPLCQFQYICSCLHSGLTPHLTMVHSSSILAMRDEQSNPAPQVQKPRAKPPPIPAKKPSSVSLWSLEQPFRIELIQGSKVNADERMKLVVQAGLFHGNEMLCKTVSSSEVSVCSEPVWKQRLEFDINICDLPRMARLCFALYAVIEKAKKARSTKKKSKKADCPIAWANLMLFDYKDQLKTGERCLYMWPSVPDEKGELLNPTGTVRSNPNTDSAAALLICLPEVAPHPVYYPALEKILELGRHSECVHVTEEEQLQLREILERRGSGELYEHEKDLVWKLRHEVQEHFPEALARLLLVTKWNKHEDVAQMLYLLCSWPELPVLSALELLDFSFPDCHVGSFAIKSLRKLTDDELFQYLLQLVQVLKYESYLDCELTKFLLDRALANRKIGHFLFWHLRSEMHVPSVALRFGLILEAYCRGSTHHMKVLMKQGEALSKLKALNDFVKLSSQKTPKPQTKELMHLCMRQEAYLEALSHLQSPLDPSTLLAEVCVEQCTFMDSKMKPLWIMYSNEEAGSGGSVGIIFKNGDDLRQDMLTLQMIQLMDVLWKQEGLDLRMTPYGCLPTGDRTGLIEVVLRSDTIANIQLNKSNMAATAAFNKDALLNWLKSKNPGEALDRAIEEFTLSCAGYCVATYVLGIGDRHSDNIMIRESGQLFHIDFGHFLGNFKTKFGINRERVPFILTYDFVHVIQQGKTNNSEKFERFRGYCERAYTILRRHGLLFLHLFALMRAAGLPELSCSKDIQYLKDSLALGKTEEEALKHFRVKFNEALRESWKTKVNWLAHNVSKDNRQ

[49] = in vivo; details: ICR, mouse, in vivo, po, 30 mg/kg; remark: listed apart in the source
[50] = in vivo; details: ICR, mouse, in vivo, iv, 3 mg/kg; remark: listed apart in the source
Description: Volume of distribution at steady state in ICR mouse plasma at 3 mg/kg, iv by LC/MS/MS analysis

[51] = system: MGC-803; experiment: Antitumor activity against human MGC803 cells xenografted in BALB/c nude mouse assessed as tumor growth inhibition at 10 mg/kg, po administered once daily for 18 days measured at post last dose relative to control; type: functional; details: MGC-803, po, 432 h, read-out: TGI
[52] = system: U-87 MG; experiment: Antitumor activity against Luc tagged human U87MG cells xenografted in BALB/c nude mouse glioblastoma orthotopic model assessed as tumor growth inhibition at 30 mg/kg, po administered daily for 5 days by MRI method relative to control; type: functional, U-87MG ATCC; details: 120 h, read-out: TGI

SMILES: COc1ccc(-c2cc3c(C)nc(N)nc3n([C@H]3CC[C@H](OCCO)CC3)c2=O)cn1 [PF-04691502]
- IC50 [1]: 200 nM
- Activity [2]: Toxic
- inhibition in vivo at 10 mg/kg [3]: 67.4%

SMILES: CC(=O)O[C@H]1C(=O)[C@@]2(C)[C@H]([C@H](OC(=O)c3ccccc3)[C@]3(O)C[C@H](OC(=O)[C@H](O)[C@@H](NC(=O)c4ccccc4)c4ccccc4)C(C)=C1C3(C)C)[C@]1(OC(C)=O)CO[C@@H]1C[C@@H]2O [PACLITAXEL]
- Activity [4]: Toxic
- inhibition in vivo at 24 mg/kg [5]: 75.4%
- Activity [6]: Toxic
- inhibition in vivo at 24 mg/kg [7]: 85.9%

SMILES: COc1ncc(-c2cc(OC3CCOCC3)c3nc(N)nc(C)c3c2)cc1NS(=O)(=O)c1ccc(F)cc1F
- IC50 [8]: 0.53 nM
- bioavailability [9]: 33.2%
- inhibition in vivo at […] [10]: 80.9%
- Cmax [11]: 10300 ng/mL
- IC50 [12]: 320 nM
- TGI [13]: Dose-dependent effect
- AUCt [14]: 234 ng·h/g
- IC50 [15]: 420 nM
- IC50 [16]: 0.016 µg/mL (≈ 0.0287 µM)
- fraction unbound at 6 h, 2 µM [17]: 0.0823
- IC50 [18]: 1700 nM
- half-life [19]: 666 min
- Cmax [20]: 4290 ng/mL
- inhibition in vivo at 5 mg/kg [21]: 77.2%
- IC50 [22]: 25 nM
- Tmax [23]: 1.8 min
- half-life [24]: 88.8 min
- IC50 [25]: 120 nM
- IC50 [26]: 7.9 nM
- inhibition in vivo at […] [27]: 68.2%
- AUC(0-inf) [28]: 36200 ng·h/mL
- fraction unbound at 6 h, 2 µM [29]: 0.0422
- AUC(0-t) [30]: 7190 ng·h/mL
- TGI [31]: Dose-dependent effect
- AUC(0-t) at 24 h [32]: 11800 ng·h/mL
- clearance [33]: 7.58 mL/min/kg
- inhibition in vivo at 5 mg/kg [34]: 91.7%
- IC50 [35]: 150 nM
- inhibition in vivo at 5 mg/kg [36]: 72.5%
- IC50 [37]: 53 nM
- MTD at 336 h [38]: > 40 mg/kg
- IC50 [39]: 1.3 nM
- IC50 [40]: 280 nM
- inhibition in vivo at 10 mg/kg [3]: 79.8%
- IC90 [41]: 0.00081 µg/mL (≈ 0.00145 µM)
- inhibition in vivo at […] [42]: 92.2%
- IC50 [43]: > 10000 nM
- AUC(0-inf) [44]: 7240 ng·h/mL
- AUC(0-t) [45]: 23900 ng·h/mL
- Tmax [46]: 30 min
- IC50 [47]: 180 nM
- IC50 [48]: 0.18 nM
- Cmax [49]: 93 ng/g
- Vd [50]: 0.853 L/kg
- inhibition in vivo at 10 mg/kg [51]: 77.7%

SMILES: COc1ccc(CN2CCNCC2)c(OC)c1OC [TRIMETAZIDINE]
- inhibition in vivo at 30 mg/kg [52]: 98.1%
